Experiments:
[1] = test system: 4T1.2 cells; assay: adherence assay of breast cancer cells to fibronectin; type: cell-based, mouse; settings: macrophages activated by 4T1.2 CM or lactate (5 mM); vs untreated control macrophages
Protocol: FIGS. 11A-11C. Lactate-activated macrophage promotes cancer cell adhesion, migration and invasion via Gpr132. (FIG. 11A) Adherence assays. 4T1.2 cells were suspended in fibronectin ([…]) pre-coated plates with CM from spleen-derived macrophages (mf) that were treated with 4T1.2 CM or lactate (5 mM) with or without Gpr132 antibody (6 mg/ml) or normal IgG (6 mg/ml) for 10 min. The adhered cells were stained with crystal violet, dissolved in 1% Triton X-100 and measured by OD590. (FIGS. 11B-11C) Boyden chamber assay of cancer cell migration and invasion. 4T1.2 cells (B) or EO771 cells (FIG. 11C) were plated on the upper chamber inserts, with untreated (Control), 4T1.2 CM-activated or lactate-activated spleen-derived WT or Gpr132-KO macrophages plated in the lower chambers. For invasion assay, the inserts were pre-coated with 60 μl matrigel. After migration for 6 hrs (FIG. 11B) or invasion for 24 hrs (FIG. 11C), the migrated or invaded cells were stained with crystal violet and counted as cells per field of view under microscope (n=3-4); For (FIG. 11C), the first bar of each data set of the bar graphs represents the control mf, and the second bar represents Gpr132KO; *p<0.05; **p<0.01; ***p<0.005; ****p<0.001. […]
Cancer cells were treated with the conditioned medium from indicated macrophage for 2 hrs. Adherence of treated breast cancer cells to fibronectin was evaluated as described.

[2] = test system: bone marrow derived macrophages (BMDMs); assay: macrophage M2-like morphology (elongation); type: cell-based, mouse; settings: WT BMDMs, exogenous lactate added
Description: FIGS. 9A-9D. Tumor-derived factors activate M2-like macrophages via Gpr132. (FIG. 9A) The pH values of conditioned media (CM) from cancer cells or macrophages (n=5-8); *p<0.05, ****p<0.001 compared with RAW 264.7 macrophage CM. (FIG. 9B) Western blot for CD206 and Gpr132 in RAW 264.7 macrophages after treatment with indicated cancer cell CM for 24 hrs. Actin was used as a loading control. The CD206/actin or Gpr132/actin ratio was quantified and shown as fold changes compared to control (n=3); *p<0.05, ***p<0.005 compared with control. (FIG. 9C) Flow cytometry analysis of Gpr132 and CD206 in BMDMs with or without EO771 CM treatment. The experiments were repeated twice and the representative results are shown. (FIG. 9D) Immunofluorescence staining for CD11b in WT and Gpr132-KO BMDMs after differentiation in the absence or presence of 30% EO771 CM or 4T1.2 CM for 7 days. Elongated macrophage morphology indicates a M2-like phenotype. Nuclei were stained with DAPI. Scale bar, 25 μm. WT, wild-type; Gpr132-KO, Gpr132 knockout.
FIGS. 10A-10F. […] LC-MS was used to quantify lactate in the eluent of Gpr132 co-IP. (Left) Representative LC-MS chromatograms; (Right) Quantification of relative lactate binding (n=3). ****p<0.001 compared with WT. […] CD206/actin ratio was quantified and shown as fold changes compared to control (n=3-4); *p<0.05 compared with WT control. […]

## CC(O)C(=O)O (centres unmarked) [lactate]
[1]
  adherence of 4T1.2 cells to fibronectin with CM from activated macrophages: significantly increased
[2]
  rescue of M2-like morphology by addition to CM of oxamic acid-treated cells: restored

From US20210095293A1, “METHODS OF TREATING CANCERS WITH GPR132 INHIBITORS” (The Board of Regents of the University of Texas System, priority 2016, published 2021)
